Test results reported in US20250114347A1, “TOPICAL NALTREXONE AS A TREATMENT FOR DRY EYE” (The Penn State Research Foundation, priority 2022, published 2025).

Experiments:
diabetic rats = assay: Schirmer test (tear production) in hyperglycemic rats with dry eye, topical drops twice daily; type: in vivo, Sprague-Dawley rats
Description: (§1) Four solutions were prepared with 0%, 0.5%, 1.5%, and 3% naltrexone (NTX). Previous formulations contained 0.003% NTX.
Adult male and female Sprague-Dawley rats were rendered hyperglycemic for 6-8 weeks, with blood glucose levels >600 mg/dL. Age at time of testing was 15-18 weeks of age.
(§2) Experimental paradigm: 1-4 rats were tested with each dose (mixture of male and females). Left eyes only were treated twice daily with one drop. • Schirmer test for baseline (to determine tear production and establish dry eye) • Add drop at 0800 and again at 1700 hr (4:40-6:00 pm) • Take Schirmer test 24 hr later • Add drop at 0800 and again at 1700 hr (4th drop) • Take Schirmer test 48 hr after first drop

normal rat = assay: Schirmer test (tear production) in a normal rat, topical drops; type: in vivo; conditions: 3% NTX solution, topical drop
Description: as §1, §2

SMILES: O=C1CC[C@@]2(O)[C@H]3Cc4ccc(O)c5c4[C@@]2(CCN3CC2CC2)[C@H]1O5 [NTX, 17-(cyclopropylmethyl)-4,5α-epoxy-3,14-dihydroxymorphinan-6-one]
- reversal of dry eye (diabetic rats; 0.5% NTX solution, one drop twice daily, Schirmer test at 24 and 48 hr): reversed dry eye
- relative effectiveness among the tested concentrations (diabetic rats; 1.5% NTX solution compared with 0.5% and 3%): most effective
- reversal of dry eye (diabetic rats; 1.5% NTX solution, one drop twice daily, Schirmer test at 24 and 48 hr): reversed dry eye
- reversal of dry eye (diabetic rats; 3% NTX solution left at RT for 3 weeks (some decomposition of the NTX)): effective at reversing dry eye
- reversal of dry eye (diabetic rats; 3% NTX solution, both male and female, one drop twice daily, Schirmer test at 24 and 48 hr): did not reverse dry eye
- effect on dry eye in a normal rat (normal rat): caused dry eye
